Reference: PubChem BioAssay AID1241 (SRMLSC, 2008)

Test: compounds inducing NF-kB luciferase expression – cell-based, SH-SY5Y, dose response (AID 1241)
Details: SH-SY5Y NF-kB promoter luciferase reporter, fold induction

Structure (SMILES)	EC50
CCc1ccc(C(=O)COC(=O)c2n[nH]c3ccccc23)cc1	2540 nM
Cc1nc(N)sc1N=Nc1ccc(Br)cc1	7000 nM
Cc1ccc(-n2c(C)cc(C(=O)CSc3nnnn3C)c2C)cc1	1320 nM
COc1ccc(-c2cn3ccc4ccccc4c3n2)cc1	716 nM
CC(C)c1ccc(OCc2nc(-c3ccccn3)no2)c(Br)c1	1030 nM
COc1ccc(-c2cc(-c3ccccc3O)[nH]n2)cc1OC	2440 nM
Cc1ccc(/C=N/Nc2cccc3cccnc23)c(O)c1	9470 nM
O=C(/C=C\Nc1ccccc1Br)c1ccc2c(c1)OCO2	96 nM
CCc1ccc(-c2cn3c(n2)SCC3)cc1	9880 nM
O=C1/C(=C/c2cccs2)CCc2ccccc21	4120 nM
CN(C)c1ccc(-c2nnc(-c3cccs3)o2)cc1	2240 nM
COc1cccc([C@@H]2Oc3ccc(OC)cc3C(=O)[C@H]2O)c1	5860 nM
Nc1nc(-c2ccc(-c3ccccc3)cc2)cs1	2420 nM
O=Cc1cn(-c2ccccc2)nc1-c1ccc2c(c1)OCCO2	6400 nM
O=C(/C=C/c1ccco1)N1CCc2ccccc21	1040 nM
CC(C)(C)c1ccc2c(c1)C(=O)c1ccccc1C2=O	3190 nM
O=C(CSc1cccc[n+]1[O-])c1cc(Cl)ccc1Cl	1950 nM
CCOC(=O)c1c(N)sc(C(=O)Nc2ccccc2)c1C	1930 nM
N#C/C(=N/Nc1ccc([N+](=O)[O-])cc1)C(=N)N1CCCCC1	2610 nM
CCc1ccc(C2=NN(S(C)(=O)=O)C(c3cccs3)C2)cc1 (stereo not drawn)	2850 nM
Cn1c(-c2ccco2)nc2cc3ccccc3cc21	816 nM
CCN(CC)c1ccc(C(=O)Nc2cccc(F)c2)cc1	1060 nM
Oc1ccccc1-c1cc(-c2ccccc2Cl)[nH]n1	1240 nM
CC(C)Oc1cccc(C(=O)Nc2ccc(Br)cc2F)c1	2460 nM
Cc1ccc(/C=N/Nc2nnc(Cl)c3ccccc23)cc1	1530 nM

Structure (SMILES)	EC50
COc1ccc2cc(-c3cc(C(=O)O)c4ccccc4n3)ccc2c1	1140 nM
CN(C)c1ccc(C(=O)/C=C/c2ccco2)cc1	1960 nM
Oc1cccc(/C=N/Nc2cccc3cccnc23)c1	1350 nM
O=C(Nc1ccc2sc3ccccc3c(=O)c2c1)c1ccccc1Cl	7040 nM
COc1ccc(C2=Nc3cc(C)ccc3OC2)cc1	1950 nM
COc1cccc(-c2cc(C(=O)N3CCCCCC3)no2)c1	1990 nM
Cc1nc(-c2ccc(NC(=O)c3ccccc3)cc2)cs1	761 nM
Clc1ccc(CSc2nc3ccncc3[nH]2)cc1	6940 nM
COc1ccc(NC(=O)c2cc3ccccn3n2)cc1	958 nM
Fc1ccc(Nc2ccc3ccccc3n2)c(F)c1	698 nM
CN1CCN(Cn2cc(/C=C/C(=O)c3ccccc3)c3ccccc32)CC1	3610 nM
O=C(Nc1cccnc1Cl)c1ccc2c(Cl)c3c(nc2c1)CCC3	674 nM
CC(=O)Nc1ccc2oc(-c3ccccc3Br)nc2c1	1060 nM
O=c1oc2ccccc2cc1-c1nnc(NCc2ccco2)s1	1330 nM
Clc1cc(Cl)c(OCc2nc(-c3ccccn3)no2)cc1Cl	1850 nM
O=C(/C=C/Nc1ccccc1F)c1cccs1	413 nM
COc1ccc(C(=O)NCCSc2ccccc2)cc1	956 nM
c1ccc(-c2ncc(-c3ccn[nH]3)s2)cc1	2320 nM
O=C(/C=C/c1ccc(Cl)cc1)Nc1nccs1	793 nM
Oc1ccccc1-c1cc(-c2ccc3c(c2)OCCO3)n[nH]1	639 nM
C(=N\Nc1nc(-c2ccccc2)cs1)/c1ccco1	1700 nM
Fc1cccc(F)c1CSc1nc2ccccc2[nH]1	4340 nM
Cc1occc1C(=O)Nc1ccc2ccccc2c1	3700 nM
N/C(=N\OC(=O)COc1ccc(Br)cc1Cl)c1ccccn1	1060 nM
CCOc1ccc2cc(C#N)c(SCC(=O)OC)nc2c1	14500 nM

Structure (SMILES)	EC50
CC(C)c1ccc(/C=C/C(=O)Nc2nncs2)cc1	4500 nM
O=C(/C=C\Nc1ccc(Br)cc1)c1cccnc1	1150 nM
Cc1ccc(Nc2nc(-c3ccc(O)cc3O)cs2)nc1	1890 nM
O=C(Nc1ccc(N2CCCC2)c(Cl)c1)c1cccs1	1510 nM
CCOC(=O)C1CCN(Cc2ccc(O)c3ncccc23)CC1	2510 nM
Brc1ccccc1-c1nc(-c2ccccc2)no1	2080 nM
COc1ccc(NC(=O)C2=Cc3ccccc3OC2)cc1	800 nM
Cc1cc(O)ccc1Nc1nc(-c2cccs2)cs1	1510 nM
CSc1ccc(/C=N/Nc2ccc(Cl)c(C(=O)O)c2)cc1	5910 nM
O=[N+]([O-])c1ccc(N/N=C/c2ccc[nH]2)cc1	3630 nM
O=C(Nc1ccccc1)c1ccc2ccccc2n1	5810 nM
Cn1cccc1C(=O)C(=O)Nc1ccccc1	25100 nM
COc1ccc(-c2nnc(-c3ccc(N)cc3)o2)cc1	2120 nM
Cc1ccc2nc(NC(=O)c3ccc(Cl)s3)sc2c1	1060 nM
CSc1ccc(C(=O)/C=C/c2ccc(N)cc2)cc1	3840 nM
CC(=O)Nc1ccc(-c2csc(Nc3cccc(C)n3)n2)cc1	1000 nM
Cc1ccc(-n2cc3ccc([N+](=O)[O-])cc3n2)cc1	1290 nM
COc1ccc(-c2csc(Nc3ncccc3C)n2)cc1	1650 nM
O=C(CCCc1ccccc1)Nc1ccc2c(c1)OCCO2	1500 nM
CCOc1ccc2nc(-c3ccccc3)[nH]c2c1	1140 nM
COc1ccccc1Nc1nc(-c2cccs2)cs1	3680 nM
Oc1ccccc1/C=N/Nc1cccc2cccnc12	3580 nM
O=c1c(-c2ccc3c(c2)OCCO3)coc2cc(O)cc(O)c12	22700 nM
O=C(CSC(=S)N1CCSCC1)c1ccccc1	3440 nM
CN(C)c1ccc(/C=c2\sc3n(c2=O)CCCN=3)cc1	11600 nM

Structure (SMILES)	EC50
O=C(c1ccccc1)c1cnc(-c2ccc(Cl)cc2)s1	1250 nM
Cc1ccc(CN=C2Nc3ccccc3CS2)cc1	1190 nM
N/C(=N\N=C\c1ccc2c(c1)OCO2)c1nonc1N	277 nM
CCOC(=O)c1cnc2c(-c3ccccc3)cnn2c1N	5180 nM
COC(=O)c1ccc(-c2ccc(Cl)cc2)nc1C	4440 nM
Cc1cc(NC(=O)c2ccccc2)sc1C	17300 nM
c1ccc(OCCSc2nnnn2-c2ccccc2)cc1	8350 nM
Cc1ccc(NC(=O)c2ccccc2)s1	6430 nM
Clc1cccc(-c2nnc(-c3ccccc3)o2)c1	1670 nM
O=C(/C=C/c1cccs1)N1CCc2ccccc21	356 nM
Cc1cccn2cc(-c3ccc(F)cc3)nc12	1860 nM
COc1ccccc1N1CCN(Cc2ccc(O)c3ncccc23)CC1	1160 nM
Oc1c(C2=NCCNC(C(F)(F)F)=C2)ccc2ccccc12	17700 nM
O=C(Nc1nc2c(s1)CCCC2)c1ccc(Br)s1	1070 nM
Cc1ccc(NC(=O)N2CCC(c3ccccc3)C2)cc1C (stereo not drawn)	5300 nM
CCCCCCOc1ccc(OC(=O)c2cccnc2)cc1	189 nM
N/C(=N\OC(=O)c1cccc(Br)c1)c1ccccc1	23200 nM
c1ccc(-c2cnc(-c3ccccc3)nc2)cc1	868 nM
COc1ccc(Cn2c(/C=C/c3ccccc3)nc3ccccc32)cc1	4870 nM
C(=N\NC1=Nc2cccc3cccc1c23)/c1ccccn1	7600 nM
Cc1cccc(NC(=O)/C=C/c2ccc3c(c2)OCO3)n1	2510 nM
COc1ccccc1-c1nc(-c2ccc(Br)o2)no1	1040 nM
COc1cccc(/C=C/C(=O)Nc2ccc3c(c2)OCCO3)c1	3940 nM
